Columns and labels:
Format in all cases: cell-based
ICP27 = assay: Western blot of ICP27 in HSV-1 infected microglia cells; conditions: for ICP27 expression: 1 μM C16, 24 hours
Protocol: (§1) FIG. 12B depicts an electrophoresis gel showing total proteins that were harvested from G2O7 infected microglia cells at 24 hours post treatment with either 1 μM of C16, 1 μM of Bay11, or 100 μM of AG. ICP27, ICP4, and […] expression was measured by western blot assay. U87 and MG co-culture were pretreated with 0.5 μM of C16 for 1 hour.
as §1, with “12C” for “12B”, “HrR3 or KOS” for “G2O7”, “post-treatment” for “post treatment”, “with” for “with either”, “PKR-i (C16).” for “C16, 1 μM of Bay11, or 100 μM of AG.”
(§2) Total protein was harvested with sample buffer (125 mM Tris-HCL, 50% Glycerol, […] and 5% 2-mercaptoethanol) and boiled for 5 minutes. Protein samples were subjected to SDS-PAGE (8% gel), transferred to nitrocellulose membranes and blocked in 5% nonfat milk (Bio Rad) in TBS-Tween 20 (TBS-T) for 1 hour at room temperature. The membranes were then incubated with primary antibody against β-actin at 1:1000 (Cell Signaling, Danvers, Mass.) or anti-STAT1 antibody at 1:1000 (Cell Signaling, Danvers, Mass.) or anti-STAT3 antibody at 1:1000 (Cell Signaling, Danvers, Mass.) or anti-phospho STAT1 antibody (Tyr701) at 1:1000 (Cell Signaling, Danvers, Mass.) or anti-phospho STAT3 antibody (Tyr705) at 1:1500 (Cell Signaling, Danvers, Mass.) or anti-phosphor-eIF2a antibody (ser51) at 1:1000 (Cell Signaling, Danvers, Mass.) or anti-ICP27 antibody at 1:1000 (Abcam, Cambridge, Mass.) or anti-ICP4 antibody at 1:750 (Abcam, Cambridge, Mass.) for overnight at 4° C. The membranes were washed the next day with TBS-T three times and incubated with corresponding secondary antibody at 1:3000 (Perkim Elmer, Boston, Mass.), for 1 hour at room temperature. Membranes were washed with TBS-T three times before visualization using ECL reagent (Perkim Elmer, Boston, Mass.) and VersaDoc imaging system (Bio-Rad). Band density was measured by using ImageJ software (NIH, Bethesda, Md.). […]

ICP4 = assay: Western blot of ICP4 in HSV-1 infected microglia cells; conditions: G207 infected; 1 μM C16, 1 μM Bay11 or 100 μM AG; 24 hours
Protocol: as §1
as §2, with “The membranes were washed the next day with TBS-T three times and incubated with corresponding secondary antibody at 1:3000 (Perkim Elmer, Boston, Mass.), for 1 hour at room temperature. Membranes were washed with TBS-T three times before visualization using ECL reagent (Perkim Elmer, Boston, Mass.) and VersaDoc imaging system (Bio-Rad).” left out

9L cells = assay: MTT cytotoxicity assay, 9L cells; conditions: 72 hours, read-out: Inhibitory concentration 50% (IC50)
Protocol: (§3) FIGS. 1A-1B are graphs that show an anti-tumor effect of nifuroxazide. (FIG. 1A) Cells were treated with indicated concentration of nifuroxazide for 72 hours. Cytotoxicity was measured by using MTT assay. (FIG. 1B) Subcutaneously U87 tumor bearing mice were peritoneally injected with indicated doses of nifuroxazide. Tumor size was measured using calipers at day 7 post nifuroxazide treatment.
(§4) In this example, the antitumor effect of nifuroxazide is evaluated in different tumor cells. Cells were treated with nifuroxazide for 72 hours (FIG. 1A). […] To verify the anti-tumor efficacy of nifuroxazide in vivo, animals with subcutaneous U87 tumor implants were injected in the peritoneum with vehicle, 1 mg/kg nifuroxazide and 50 mg/kg nifuroxazide. […] Tumor volume was reduced around 25% and 60% after 7 days treatment with 1 mg/kg nifuroxazide and 50 mg/kg nifuroxazide respectively (FIG. 1B).
(§5) Cells were seeded in a 96-well plate at a density of 1×104 (U87). After overnight incubation, cells were treated with only vehicle or indicated MOI of virus or indicated concentration of drugs or reagents. After 2 to 3 days of treatment cell viability was measured by MTT assay (Sigma, Canada) according to the manufacturer's instruction. […] After overnight incubation with lysis buffer, cell viability was measured at 595 nm using a plate reader (Envision 2103 Multilabel reader, Perkin Elmer).

U373 cells = assay: MTT cytotoxicity assay, U373 cells; conditions: Homo sapiens, U373 MG, 72 hours, read-out: Inhibitory concentration 50% (IC50)
Protocol: as §3, §4, §5

LnCap cells = assay: MTT cytotoxicity assay, LnCap cells; conditions: Homo sapiens, 72 hours, read-out: Inhibitory concentration 50% (IC50)
Protocol: as §3, §4, §5

STAT3 = molecular target: T1, STAT3 (Mus musculus, UniProt P42227); assay: Western blot of STAT3 phosphorylation in CT26 cells; conditions: 24 hours
T1 construct: Total protein was extracted after 24 hours and subjected to western blot analysis; endogenous in cells; host or cells: CT26 cells, with or without HrR3 infection
Protocol: FIG. 19A and FIG. 19B, U87 cells (A) or CT26 cells (B) were treated with the indicated concentrations of HrR3 or NF or a combination. Total protein was extracted after 24 hours and subjected to western blot analysis. Band intensity was measured using Image J software and normalized to β-actin. Samples were run in triplicate and data are as means±S.E. Statistically significant differences are indicated by P<0.05 or P<0.01. FIG. 19C, Mice subcutaneously bearing U87 tumors were intratumorally injected with a single dose of HrR3 virus (1×10^6 PFU) and/or peritoneally injected doses of NF as indicated. Tumors were harvested on day 10 post treatment and total protein was extracted from a mouse of each treatment group and subjected to western blot analysis in triplicate. Results are reported as means±S.E.
NF is a known inhibitor of STAT1 and STAT3. To evaluate the underlying molecular mechanism of the anti-tumour effect of the NF and oHSV-1 combination, the STAT1 and STAT3 status in U87 cells (FIG. 19A) and CT26 cells (FIG. 19B) cells was determined after an overnight treatment with NF and oncolytic viruses.

T1 sequence (P42227 whole entry): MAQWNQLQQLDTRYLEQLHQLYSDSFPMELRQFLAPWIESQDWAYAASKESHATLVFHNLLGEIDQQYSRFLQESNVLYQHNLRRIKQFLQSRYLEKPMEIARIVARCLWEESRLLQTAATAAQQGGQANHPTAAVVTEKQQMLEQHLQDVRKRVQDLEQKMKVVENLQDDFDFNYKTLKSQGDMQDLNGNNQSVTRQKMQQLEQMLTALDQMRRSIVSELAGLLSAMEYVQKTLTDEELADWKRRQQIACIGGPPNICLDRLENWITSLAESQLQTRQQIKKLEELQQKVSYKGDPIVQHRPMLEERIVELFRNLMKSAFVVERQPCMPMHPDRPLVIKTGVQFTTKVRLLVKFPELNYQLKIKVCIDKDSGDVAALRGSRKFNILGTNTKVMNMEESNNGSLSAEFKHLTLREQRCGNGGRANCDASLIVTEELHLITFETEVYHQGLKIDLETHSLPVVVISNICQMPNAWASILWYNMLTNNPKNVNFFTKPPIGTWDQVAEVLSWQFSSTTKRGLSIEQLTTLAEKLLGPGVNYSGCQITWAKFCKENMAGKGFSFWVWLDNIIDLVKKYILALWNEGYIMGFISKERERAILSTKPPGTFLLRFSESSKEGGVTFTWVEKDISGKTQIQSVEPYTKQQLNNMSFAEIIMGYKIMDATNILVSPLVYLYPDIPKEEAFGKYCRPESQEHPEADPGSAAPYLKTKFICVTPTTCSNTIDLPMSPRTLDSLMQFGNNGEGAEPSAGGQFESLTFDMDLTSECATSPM

Row | SMILES | upregulated expression of ICP27 (ICP27; G207 infected, 1 μM C16, 1 μM Bay11 or 100 μM AG, 24 hours) | ICP27 expression (ICP27; HrR3 infected BV2 cells) | ICP27 expression (ICP27; KOS infected BV2 cells) | upregulated expression of ICP4 (ICP4) | IC50 (9L cells) | IC50 (U373 cells) | IC50 (LnCap cells) | HrR3 induced upregulation of STAT3 phosphorylation (STAT3) | phosphorylation of STAT3 (STAT3; NF alone)
1 | O=C1Nc2ccc3ncsc3c2/C1=C/c1c[nH]cn1 [C16, 6,8-Dihydro-8-(1H-imidazol-5-ylmethylene)-7H-pyrrolo[2,3-g]benzothiazol-7-one] | 25 fold | upregulated ICP27 expression | upregulated ICP27 expression | 1.8 fold |  |  |  |  | 
2 | O=C(N/N=C/c1ccc([N+](=O)[O-])o1)c1ccc(O)cc1 [nifuroxazide, Benzoic acid, 4-hydroxy-, [(5-nitro-2-furanyl)metylene]hydrazide] |  |  |  |  | ~27 µM | ~23 µM | ~5 µM | effectively suppressed | dose dependent inhibition

From US20190307820A1, “COMPOSITIONS AND METHODS OF USING STAT1/3 INHIBITORS WITH ONCOLYTIC HERPES VIRUS” (priority 2016, published 2019)
